The results in this text go back to BindingDB's records for doi:10.7270/Q20Z71R6 (Burnham Center For Chemical Genomics, 2010).

As a reminder, the EC50 is the concentration giving half of the maximal effect. A higher EC50 goes with a need for much substance.

For this assay, the target named is Alkaline phosphatase, placental type (Homo sapiens, UniProt P05187). In words: PLAP enzyme activators, dose response, selectivity assay for human IAP activator project, biochemical, uHTS hits, luminescence (AID 488888).
Sequence of Alkaline phosphatase, placental type (P05187 whole entry, looked up): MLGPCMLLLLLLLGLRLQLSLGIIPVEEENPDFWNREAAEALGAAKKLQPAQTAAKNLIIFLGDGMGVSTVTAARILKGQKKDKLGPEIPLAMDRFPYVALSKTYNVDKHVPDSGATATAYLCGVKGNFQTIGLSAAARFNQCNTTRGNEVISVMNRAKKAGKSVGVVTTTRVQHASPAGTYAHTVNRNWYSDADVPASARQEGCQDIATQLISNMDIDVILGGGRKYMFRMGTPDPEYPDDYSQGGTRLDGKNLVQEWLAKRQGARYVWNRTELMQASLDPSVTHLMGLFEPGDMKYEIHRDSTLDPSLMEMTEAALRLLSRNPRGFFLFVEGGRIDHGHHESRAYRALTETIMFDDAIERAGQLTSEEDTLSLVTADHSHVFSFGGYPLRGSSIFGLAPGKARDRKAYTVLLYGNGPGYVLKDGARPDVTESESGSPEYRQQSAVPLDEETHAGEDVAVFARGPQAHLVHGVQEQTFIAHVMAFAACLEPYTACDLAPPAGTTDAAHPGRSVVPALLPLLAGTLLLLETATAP
Compound `Cc1c(C(=O)NN=Cc2ccc(O)cc2O)[nH][nH]c1=O` yielded a concentration giving a half-maximal response (EC50) of 13.2 µM. In turn, `Cc1cc(Br)ccc1SCC(=O)OCC(=O)C(C#N)c1nc2ccccc2[nH]1` (stereo unspecified) [2-[(4-bromo-2-methylphenyl)thio]acetic acid [3-cyano-3-(1,3-dihydrobenzimidazol-2-ylidene)-2-oxopropyl] ester] displayed a concentration giving a half-maximal response (EC50) of 25.5 µM.

The compound `C=c1[nH]n(-c2nc3ccccc3[nH]2)c(=O)c1=CN(C)C` [(4E)-2-(1H-benzimidazol-2-yl)-4-(dimethylaminomethylidene)-5-methyl-pyrazol-3-one] yielded an EC50 of 15.3 µM.

Regarding `CCc1ccc(CN=Nc2ncnc3nc[nH]c23)cc1` [MLS000419199], the concentration giving a half-maximal response (EC50) turned out to be 13.4 µM. This EC50 and that of the compound before are within 1.5-fold of each other. Under `Cn1c(C(C#N)C(=O)c2ccc(Br)s2)nc2ccccc21` (stereo unspecified) [MLS001167394] stands 62.2 µM; under `COc1cccc(C=NNC(=O)c2[nH][nH]c(=O)c2C)c1O` [N'-[(E)-(5-methoxy-6-oxidanylidene-cyclohexa-2,4-dien-1-ylidene)methyl]-4-methyl-5-oxidanylidene-1,4-dihydropyrazole-3-carbohydrazide], 7.82 µM. On to `O=c1c2ccccc2nc(N=NCc2c(O)ccc3ccccc23)n1O` [SMR000145705], for which the response was half-maximal at 35.2 µM (EC50). Under `O=C(Nn1c(O)csc1=S)C(=O)Nn1c(O)csc1=S` [SMR000349781] stands 14.5 µM; under `O=Nc1[nH]c(=O)c(CC(=O)c2ccccc2)nc1NO` [SMR000539633], 9.75 µM; under `CCOC(=O)c1c(C)[nH]c(C(=O)N/N=C/C2C=C([N+](=O)[O-])C=CC2=O)c1C` (stereo unspecified) [ethyl 2,4-dimethyl-5-[[[(E)-(3-nitro-6-oxocyclohexa-2,4-dien-1-ylidene)methyl]amino]carbamoyl]-1H-pyrrole-3-carboxylate], 23.2 µM. `O=C(O)[C@H]1O[C@@H](Oc2c(-c3ccc(O)c(O)c3)oc3cc(O)cc(=O)c-3c2O)[C@H](O)[C@@H](O)[C@@H]1O` [quercetin glucuronide] registered an EC50 above 100 µM.
